Source: publication PMC7887755, “Structure–Activity Relationships of Pyrazolo[1,5-a]pyrimidin-7(4H)-ones as Antitubercular Agents” (ACS Infectious Diseases, 2021)
≈ marks a conversion by molar mass, not a printed value. Where “and” joins values, the source holds several entries; their conditions need not be identical. Identical values can stand only once. Like-named read-outs stand apart in the source and are kept apart here.

Experiments:
[1] = test system: Mtb H37Rv; assay: microbe, parasite or virus in culture; type: cell-based, Mycobacterium tuberculosis
[2] = test system: HepG2 cells; details: 24 h
[3] = in vitro; details: human, 24 h
[4] = test system: DNA damage responsive recA and radA reporters; type: cell-based, Mycobacterium tuberculosis
[5] = Microsomal stability, mouse; type: in vitro ADME; details: liver microsomes of female mouse, read-out: % Remaining after 2 h incubation Mouse
Method: (§1) % Remaining after 2 h incubation
(§2) Compound Chemical Structure
(§3) Table S1. Microsomal stability of some pyrazolo[1,5-a]pyrimidin-7(4H)-one derivatives
(§4) Microsomal stability was tested in microsomes from liver of female mouse (M9566 from Sigma-Aldrich)a or microsomes
(§5) from human liver (M0317 from Sigma-Aldrich)b.

[6] = Microsomal stability, human; type: in vitro ADME; details: human liver microsomes, read-out: % Remaining after 2 h incubation Human
Method: as §1, §2, §3, §4, §5

[7] = test system: cell wall responsive iniBAC promoter (piniB-LUX reporter strain); type: cell-based, Mycobacterium tuberculosis
[8] = test system: Mtb H37Rv WT; assay: microbe, parasite or virus in culture; type: cell-based; details: Mycobacterium tuberculosis
[9] = test system: Mtb H37Rv; assay: MIC under iron-depleted (DFO) or iron-replete (FeCl3) conditions; type: cell-based, Mycobacterium tuberculosis
[10] = test system: Mtb strain H37Rv; assay: MIC against Mtb H37Rv under various media/carbon sources; type: cell-based; details: Mycobacterium tuberculosis
[11] = read-out: Cytotoxicity (IC50) Galactose, HepG2 cells in DMEM/10% FBS with galactose
[12] = read-out: Cytotoxicity (IC50) Glucose, HepG2 cells in DMEM/10% FBS supplemented with glucose
[13] = Mycobacterium tuberculosis, H37RV, read-out: MIC in 7H9 ADC
[14] = Mycobacterium tuberculosis, H37RV, read-out: MIC in 7H9 GCas
[15] = Cytotoxicity (IC50) Galactose, HepG2 cells in DMEM/10% FBS with galactose
[16] = Cytotoxicity (IC50) Glucose, HepG2 cells in DMEM/10% FBS supplemented with glucose

Molecule: 5-(2-Fluorophenyl)-2-methyl-3-phenylpyrazolo[1,5-a]pyrimidin-7(4H)-one [Compound P16]
- MIC ([1]; read-out: MIC in 7H9 ADC): 12.5 µM
- MIC ([1]; read-out: MIC in 7H9 GCas): 3.12 µM
- IC50 [2, 11]: > 100 µM
- IC50 [2, 12]: > 100 µM

Molecule: Cc1nn2c(=O)cc(CN3CCOCC3)[nH]c2c1-c1ccccc1 [Compound P10, 2-Methyl-5-(morpholinomethyl)-3-phenylpyrazolo[1,5-a]pyrimidin-7(4H)-one]
- MIC [1, 13]: > 100 µM
- MIC [1, 14]: > 100 µM
- IC50 [3, 15]: > 100 µM
- IC50 [3, 16]: > 100 µM

Molecule: COc1c(N2C[C@@H]3CCCN[C@@H]3C2)c(F)cc2c(=O)c(C(=O)O)cn(C3CC3)c12 [MOX, moxifloxacin]
- reporter gene assay DNA damage [4]: yes

Molecule: Cc1nn2c(=O)cc(CC3CCCCC3)[nH]c2c1-c1ccccc1 [Compound P9, 5-(Cyclohexylmethyl)-2-methyl-3-phenylpyrazolo[1,5-a]pyrimidin-7(4H)-one]
- MIC [1, 13]: > 100 µM
- MIC [1, 14]: > 100 µM
- IC50 [3, 15]: 50.5 µM
- IC50 [3, 16]: 85.8 µM

Molecule: 2-Methyl-3-phenyl-5-(pyridin-3-yl)pyrazolo[1,5-a]pyrimidin-7(4H)-one [Compound P13]
- MIC ([1]; read-out: MIC in 7H9 ADC): 50.0 µM and 50 µM
- MIC ([1]; read-out: MIC in 7H9 GCas): 12.5 µM
- IC50 [2, 11]: > 100 µM
- IC50 [2, 12]: > 100 µM

Molecule: Cc1nn2c(=O)cc(-c3ccccc3)[nH]c2c1C [Compound P21, 2,3-Dimethyl-5-phenylpyrazolo[1,5-a]pyrimidin-7(4H)-one]
- MIC [1, 13]: > 100 µM
- MIC [1, 14]: 12.5 µM (≈ 2.99 µg/mL)
- IC50 [3, 15]: > 100 µM
- IC50 [3, 16]: > 100 µM

Molecule: Cc1nn2c(=O)cc(-c3ccccc3)n(C)c2c1-c1ccccc1 [Compound P2, 2,4-Dimethyl-3,5-diphenylpyrazolo[1,5-a]pyrimidin-7(4H)-one]
- MIC [1, 13]: > 100 µM
- MIC [1, 14]: 50 µM (≈ 15.8 µg/mL)
- MIC ([1]; read-out: MIC in 7H9 GCas): 50 µM (≈ 15.8 µg/mL)

Molecule: Cc1nn2c(=O)c(C)c(-c3ccccc3)[nH]c2c1-c1ccccc1 [Compound P6, 2,6-Dimethyl-3,5-diphenylpyrazolo[1,5-a]pyrimidin-7(4H)-one]
- MIC [1, 13]: 43.8 µM (≈ 13.8 µg/mL)
- MIC [1, 14]: 3.12 µM (≈ 0.984 µg/mL)
- IC50 [3, 15]: > 100 µM
- IC50 [3, 16]: > 100 µM

Molecule: Cc1nn2c(=O)cc(Cc3ccccc3)[nH]c2c1-c1ccccc1 [Compound P8, 5-Benzyl-2-methyl-3-phenylpyrazolo[1,5-a]pyrimidin-7(4H)-one]
- MIC [1, 13]: 75 µM (≈ 23.7 µg/mL)
- MIC [1, 14]: 3.12 µM (≈ 0.984 µg/mL)
- MIC ([1]; read-out: MIC in 7H9 ADC): 75 µM (≈ 23.7 µg/mL)
- IC50 [3, 15]: > 100 µM
- IC50 [3, 16]: > 100 µM

Molecule: Cc1nn2c(=O)cc(-c3ccc(Cl)c(Cl)c3)[nH]c2c1-c1ccccc1 [Compound P20, 5-(3,4-Dichlorophenyl)-2-methyl-3-phenylpyrazolo[1,5-a]pyrimidin-7(4H)-one]
- remaining at 2 h [5]: 41%
- remaining at 2 h [6]: 55%
- improvement in MIC compared to the initial hit 1 [1]: 5 fold
- MIC [1, 13]: 2.34 µM (≈ 0.866 µg/mL)
- MIC [1, 14]: 1.56 µM (≈ 0.578 µg/mL)
- IC50 [3, 15]: 55.7 µM
- IC50 [3, 16]: > 100 µM

Molecule: 5-(4-Fluorophenyl)-2-methyl-3-phenylpyrazolo[1,5-a]pyrimidin-7(4H)-one [Compound P18]
- MIC ([1]; read-out: MIC in 7H9 ADC): 6.25 µM
- MIC ([1]; read-out: MIC in 7H9 GCas): 1.56 µM
- IC50 [2, 11]: > 100 µM
- IC50 [2, 12]: > 100 µM

Molecule: 5-(3-Fluorophenyl)-2-methyl-3-phenylpyrazolo[1,5-a]pyrimidin-7(4H)-one [Compound P17]
- MIC ([1]; read-out: MIC in 7H9 ADC): 6.25 µM
- MIC ([1]; read-out: MIC in 7H9 GCas): 1.56 µM
- IC50 [2, 11]: 93.8 µM
- IC50 [2, 12]: > 100 µM

Molecule: 5-Cyclohexyl-2-methyl-3-phenylpyrazolo[1,5-a]pyrimidin-7(4H)-one [Compound P11]
- MIC ([1]; read-out: MIC in 7H9 ADC): >100 µM
- MIC ([1]; read-out: MIC in 7H9 GCas): >100 µM
- IC50 [2, 11]: > 100 µM
- IC50 [2, 12]: > 100 µM

Molecule: COc1ccc(-c2cc(=O)n3nc(C)c(-c4ccc(F)cc4)c3[nH]2)cc1 [Compound 4, 3-(4-Fluorophenyl)-5-(4-methoxyphenyl)-2-methylpyrazolo[1,5-a]pyrimidin-7(4H)-one, reference compound]
- reporter gene assay cell wall [7]: no
- MIC [8]: 1.56 µM (≈ 0.545 µg/mL)
- increase in potency under iron-depleted conditions (MIC ratio) [9]: ≤ 2 fold
- MIC ([10]; GAST/Fe, read-out: MIC GAST): 3.13 µM (≈ 1.09 µg/mL)
- MIC ([10]; pH 6, read-out: MIC nitrate/butyrate): 6.25 µM (≈ 2.18 µg/mL)
- MIC ([10]; read-out: MIC 7H9): 12.5 µM (≈ 4.37 µg/mL)
- MIC ([10]; read-out: MIC Chol): 12.5 µM (≈ 4.37 µg/mL)
- MIC ([10]; read-out: MIC GBSA/DBSA): 9.4 µM (≈ 3.28 µg/mL)
- MIC [1, 13]: 9.38 µM (≈ 3.28 µg/mL)
- MIC [1, 14]: 3.12 µM (≈ 1.09 µg/mL)
- reporter gene assay DNA damage [4]: no

Molecule: O=c1cc(-c2ccccc2)[nH]c2c(-c3ccccc3)cnn12 [Compound P22, 3,5-Diphenylpyrazolo[1,5-a]pyrimidin-7(4H)-one]
- MIC [1, 13]: 12.5 µM (≈ 3.59 µg/mL)
- MIC [1, 14]: 6.25 µM (≈ 1.8 µg/mL)
- IC50 [3, 15]: > 100 µM
- IC50 [3, 16]: > 100 µM

Molecule: 5-(Furan-3-yl)-2-methyl-3-phenylpyrazolo[1,5-a]pyrimidin-7(4H)-one [Compound P14]
- MIC ([1]; read-out: MIC in 7H9 ADC): 25.0 µM and 25 µM
- MIC ([1]; read-out: MIC in 7H9 GCas): 3.12 µM
- IC50 [2, 11]: > 100 µM
- IC50 [2, 12]: > 100 µM
